# Test results published in publication PMC6199744, “Development of Chemical Proteomics for the Folateome and Analysis of the Kinetoplastid Folateome” (ACS Infectious Diseases, 2018).
# Where “and” joins values, the source holds several entries; their conditions need not be identical. Identical values can stand only once. Like-named read-outs stand apart in the source and are kept apart here.
# Tested on: L. major lysate proteins
# Assay: Multitargeted bead mixture chemoproteomics, single concentration competition, proteome-wide
# Type: binding
# Settings: for fold change: vehicle control = 1
smiles,measurement,setting,value
"Nc1nc2c(c(=O)[nH]1)N(C=O)C(CNc1ccc(C(=O)N[C@@H](CCC(=O)O)C(=O)O)cc1)CN2 (some centres unmarked) [LEU, leucovorin]",fold change relative to vehicle control,,1.05 and 1.2 and 1.04
same,fold change vs vehicle control,,0.97 and 1.04
same,fold change vs vehicle control,protein CLI00016468.1 KINETOPLASTID MEMBRANE PROTEIN-11,0.87
same,fold change vs vehicle control,"protein LINJ.03.0240 RIBOSOMAL PROTEIN L38, PUTATIVE",0.99
same,fold change vs vehicle control,"protein LINJ.11.0780 40S RIBOSOMAL PROTEIN S21, PUTATIVE",1.06
same,fold change,protein LINJ.11.0960 40S RIBOSOMAL PROTEIN S5,1.08
same,fold change vs vehicle control,"protein LINJ.13.0990 PROTEASOME REGULATORY ATPASE SUBUNIT 2, PUTATIVE",0.99
same,fold change vs vehicle control,"protein LINJ.15.0330 RIBONUCLEOPROTEIN P18, MIT[…], PUTATIVE",1.01
same,fold change,"protein LINJ.19.0090 FIBRILLARIN, PUTATIVE",0.98
same,fold change relative to vehicle control,"protein LINJ.23.0860, 3-KETOACYL-COA THIOLASE, PUTATIVE",1.25
same,fold change relative to vehicle control,"protein LINJ.24.2300, 60S RIBOSOMAL PROTEIN L12, PUTATIVE",1.07
same,fold change vs vehicle control,"protein LINJ.25.2230 SUCCINYL-COA […] SUBUNIT, PUTATIVE",1.12
same,fold change vs vehicle control,"protein LINJ.26.1630 40S RIBOSOMAL PROTEIN S33, PUTATIVE",0.97
same,fold change vs vehicle control,"protein LINJ.28.1100 RIBOSOMAL PROTEIN S20, PUTATIVE",0.97
same,fold change relative to vehicle control,"protein LINJ.28.1940, R[…] A, 51KDA SUBUNIT, PUTATIVE",1.01
same,fold change,"protein LINJ.28.2280 DYNEIN LIGHT CHAIN LC6, FLAGELLAR OUTER ARM, PUTATIVE",0.84
same,fold change,"protein LINJ.28.2870 PROTEIN PHOSPHATASE 4 CATALYTIC SUBUNIT, PUTATIVE",0.86
same,fold change relative to vehicle control,"protein LINJ.31.1600, […] OXIDASE VIII (COX VIII), PUTATIVE",0.98
same,fold change relative to vehicle control,"protein LINJ.33.1730, CYCLOPHILIN 4, PUTATIVE",1.85
same,fold change vs vehicle control,"protein LINJ.34.0670 PROTEASOME REGULATORY NON-ATP-ASE SUBUNIT 11, PUTATIVE,19S PROTEASOME REGULATORY SUBUNIT",0.93
same,fold change vs vehicle control,"protein LINJ.36.0780 PROTEIN KINASE, PUTATIVE,MITOGEN-ACTIVATED PROTEIN KINASE, PUTATIVE",0.84
same,fold change relative to vehicle control,"protein LINJ.36.3960, BASIC TRANSCRIPTION FACTOR 3A, PUTATIVE",2.31
same,fold change relative to vehicle control,"protein LINJ.36.4080, HY[…], CONSERVED",1.26
same,fold change,protein LINJ.36.4180 HS1VU COMPLEX PROTEOLYTIC SUBUNIT-LIKE,0.87
same,fold change vs vehicle control,"protein LINJ.[…] LONG-CHAIN-FATTY-ACID-COA LIGASE, PUTATIVE",1.05
same,fold change,"protein LMJF.01.0570 TRIC[…], PUTATIVE",0.89
same,fold change relative to vehicle control,"protein LMJF.03.0200, DELTA-1-PYRROLINE-5-CARBOXYLATE DEHYDROGENASE, PUTATIVE",1.13
same,fold change,"protein LMJF.03.0230 LONG CHAIN FATTY ACYL COA SYNTHETASE, PUTATIVE",0.93
same,fold change,"protein LMJF.03.0980 ELONGATION INITIATION FACTOR 2 ALPHA SUBUNIT, PUTATIVE",1
same,fold change vs vehicle control,"protein LMJF.04.0630 HY[…], CONSERVED",1.02
same,fold change vs vehicle control,protein LMJF.04.1230 actin,0.94
same,fold change,"protein LMJF.05.0100 PHOSPHOPROTEIN PHOSPHATASE, PUTATIVE",0.74
same,fold change,"protein LMJF.05.0280 PROTEIN TYROSINE PHOSPHATASE, PUTATIVE",0.85
same,fold change,protein LMJF.05.0510 ATPASE ALPHA SUBUNIT,1
same,fold change,protein LMJF.05.1040 STOMATIN-LIKE PROTEIN,0.94
same,fold change,"protein LMJF.06.0650 LANOSTEROL SYNTHASE, PUTATIVE",0.97
same,fold change vs vehicle control,protein LMJF.07.0700 TOPOISOMERASE-RELATED FUNCTION PROTEIN-LIKE PROTEIN,1.01
same,fold change,protein LMJF.07.1000 RNA BINDING PROTEIN-LIKE PROTEIN,1.02
same,fold change relative to vehicle control,"protein LMJF.07.1140, PEPTIDE METHIONINE SULFOXIDE REDUCTASE-LIKE",1.3
same,fold change,"protein LMJF.08.0510 RIBOSE-PHOSPHATE PYROPHOSPHOKINASE, PUTATIVE",0.82
same,fold change vs vehicle control,protein LMJF.08.0550 T[…]-LIKE PROTEIN,1.05
same,fold change relative to vehicle control,"protein LMJF.08.1030, cathepsin L-like protease",1.06
same,fold change vs vehicle control,"protein LMJF.08.1100 HYPOTHETICAL PROTEIN, CONSERVED",0.91
same,fold change vs vehicle control,"protein LMJF.09.1010 HYPOTHETICAL PROTEIN, CONSERVED",0.98
same,fold change relative to vehicle control,"protein LMJF.09.1120, MIT[…] BINDING PROTEIN 2,MRP2, GBP25",1.22
same,fold change vs vehicle control,"protein LMJF.09.1260 HY[…], CONSERVED",1.02
same,fold change,"protein LMJF.10.0210 NUCLEOLAR PROTEIN, PUTATIVE",0.98
same,fold change vs vehicle control,"protein LMJF.10.0310 PROTEIN TRANSPORT PROTEIN SEC23, PUTATIVE",1.08
same,fold change,"protein LMJF.11.0590 3-[…]-COA C[…] SUBUNIT, PUTATIVE",0.98
same,fold change relative to vehicle control,"protein LMJF.11.0630, AMINOPEPTIDASE, PUTATIVE,METALLO-PEPTIDASE, CLAN MF, FAMILY M17",1.23
same,fold change vs vehicle control,"protein LMJF.11.1050 PRETRANSLOCATION PROTEIN, ALPHA SUBUNIT, PUTATIVE,SEC61-LIKE (PRETRANSLOCATION PROCESS) PROTEIN, PUTATIVE",0.89
same,fold change,"protein LMJF.11.1160 PROTEIN TRANSPORT PROTEIN SEC31, PUTATIVE",0.83
same,fold change,"protein LMJF.12.0030 PROTEASOME BETA-1 SUBUNIT, PUTATIVE",0.95
same,fold change vs vehicle control,"protein LMJF.12.0210 […] […]1L8 3, PUTATIVE",1.05
same,fold change relative to vehicle control,"protein LMJF.12.0530, GLUCOSE-6-PHOSPHATE ISOMERASE",1.53
same,fold change,protein LMJF.12.0630 ALANINE AMINOTRANSFERASE,0.86
same,fold change vs vehicle control,"protein LMJF.13.1230 40S RIBOSOMAL PROTEIN S4, PUTATIVE",1.16
same,fold change vs vehicle control,"protein LMJF.14.0310 […] 3 SUBUNIT, PUTATIVE",1.04
same,fold change,"protein LMJF.14.0660 FATTY ACID ELONGASE, PUTATIVE",0.88
same,fold change,"protein LMJF.14.0670 FATTY ACID ELONGASE, PUTATIVE",0.9
same,fold change vs vehicle control,"protein LMJF.14.0680 FATTY ACID ELONGASE, PUTATIVE",1.06
same,fold change,protein LMJF.14.0990 ADP/ATP MITOCHONDRIAL CARRIER-LIKE PROTEIN,0.97
same,fold change vs vehicle control,protein LMJF.14.1160 ENOLASE,1.01
same,fold change,"protein LMJF.14.1440 HYPOTHETICAL PROTEIN, CONSERVED (cytoskeleton associated protein, putative)",0.9
same,fold change,"protein LMJF.15.0040 HYPOTHETICAL PROTEIN, CONSERVED (Possible lysine decarboxylase, putative)",0.89
